Results: US20250361239A1, “PROTEIN DEGRADERS AND USES THEREOF” (ZHUHAI YUFAN BIOTECHNOLOGIES CO., LTD., priority 2022, published 2025)

Key:
Type in all cases: cell-based
[1] = target: T1, GSPT1 (Homo sapiens, UniProt P15170+Q96SW2); assay: Degradation of GSPT1 by the compounds (HiBiT signal in GSPT1/HEK293 hibit cells); settings: 6 h incubation, Nano Glo HiBiT Lytic Detection
T1 construct: host or cells: HEK293
Description: GSPT1/HEK293 hibit cell lines were constructed by Shanghai BioDuro Co., Ltd., HEK293 cell lines were purchased from ATCC (Cat #ATCC® CRL-1573™), DMEM media were purchased from ATCC (Cat #ATCC® 30-2002™), FBS was purchased from Gibco (Cat #10091148), Nano Glo HiBiT Lytic Detection System was purchased from Promega (Cat #N3040), and 96-well plates were purchased from coming (Cat #3610).
The degradation of GSPT1 by the compounds was determined by measuring the intensity of hibit signals in cells. Firstly, the cells were digested with pancreatin, and the digestion was then terminated with medium. The cells were centrifuged, and the supernatant was discarded. The centrifuged cells were resuspended in a fresh complete medium, and the cell density was adjusted to 2.5×10^4 cells/mL. The resuspended cells were inoculated into an opaque 96-well cell culture plate at 100 μL of cell suspension per well, and the cell culture plate was incubated in a cell incubator at 37° C. overnight. The next day, dilutions (20 μL) of compounds with different concentrations were added, and the plate was incubated in a cell incubator for 6 h. After 6 h, 60 μL of Nano Glo HiBiT Lytic Detection System reagent was added and the luminescence values were read on the instrument.
According to the corresponding degradation rate and concentration of each gradient concentration well, a gradient curve of degradation rate was fitted using XLFit software, and the DC50 values of compounds were calculated.

[2] = tested on: HL60 cells; assay: HL60 cell killing experiment (CellTiter-Glo cell viability); settings: CTG luminescence
Description: (§1) HL60 cell lines were purchased from ATCC (Cat #ATCC® CCL-240™), IMDM media were purchased from ATCC (Cat #ATCC® 30-2005™), FBS was purchased from Gibco (Cat #10091148), celltiter-glo luminescent cell viability assay was purchased from promega (Cat #G7572), and 96-well plates were purchased from corning (Cat #3610).
(§2) The effect of compounds on the growth of HL60 cells was determined by measuring cell viability. Firstly, cells in the logarithmic growth phase were collected and centrifuged, and the culture supernatant was discarded. The centrifuged cells were resuspended in a fresh complete medium, and the cell density was adjusted to 5×10^4 cells/mL. The resuspended cells were inoculated into two opaque 96-well cell culture plates at 100 μL of cell suspension per well, and the cell culture plates were incubated in a cell incubator at 37° C. for 4 h. After 4 h, dilutions (20 μL) of compounds with different concentrations were added. After one of the cell plates was cooled to room temperature, 60 μL of CTG reagent was added, and the luminescence values were read on the instrument as G0. The other one was incubated in a cell incubator for 48 h. After 48 h, 60 μL of CTG reagent was added, and the luminescence values were read on the instrument as G3.
(§3) According to the corresponding proliferation rate and concentration of each gradient concentration well, a gradient curve of cell proliferation was fitted using XLFit software, and the GI50 values of compounds were calculated.

[3] = tested on: NCI-H929 cells; assay: NCI-H929 cell killing experiment (CellTiter-Glo cell viability); settings: Homo sapiens, 48 h incubation, CTG luminescence
Description: as §1, with “NCI-H929” for “HL60”, “CRL-9068™), RPMI1640” for “CCL-240™), IMDM”, “30-2001™),” for “30-2005™),”, “coming” for “corning”
as §2, with “2. Method The effect” for “The effect”, “growth of NCI-H929 cells was” for “growth of HL60 cells was”, “measuring cell viability and growth rate. Firstly, cells” for “measuring cell viability. Firstly, cells”, “into two identical opaque 96-well” for “into two opaque 96-well”
as §3

[4] = tested on: Hep3B cells; assay: Hep3B cell killing experiment (CellTiter-Glo cell viability); settings: Homo sapiens, 48 h incubation, CTG luminescence
Description: as §1, with “Hep3B” for “HL60”, “HB-8064™), EMEM” for “CCL-240™), IMDM”, “30-2003™),” for “30-2005™),”, “coming” for “corning”
The effect of compounds on the growth of Hep3B cells was determined by measuring cell viability and growth rate. Firstly, the cells were digested with pancreatin, and the digestion was then terminated with medium. The cells were centrifuged, and the supernatant was discarded. The centrifuged cells were resuspended in a fresh complete medium, and the cell density was adjusted to 5×10^4 cells/mL. The resuspended cells were inoculated into two identical opaque 96-well cell culture plates at 100 μL of cell suspension per well, and the cell culture plates were incubated in a cell incubator at 37° C. overnight. The next day, dilutions (20 μL) of compounds with different concentrations were added. After one of the cell plates was cooled to room temperature, 60 μL of CTG reagent was added. The luminescence values were read on the instrument as G0. The other one was incubated in a cell incubator for 48 h. After 48 h, 60 μL of CTG reagent was added, and the luminescence values were read on the instrument as G3.
as §3

[5] = tested on: Jurkat cells; assay: Jurkat cell killing experiment (CellTiter-Glo cell viability); settings: Homo sapiens, 48 h incubation, CTG luminescence
Description: as §1, with “Jurkat” for “HL60”, “TIB-152™), RPMI1640” for “CCL-240™), IMDM”, “30-2001™),” for “30-2005™),”, “coming” for “corning”
as §2, with “Jurkat” for “HL60”, “viability and growth rate.” for “viability.”, “two identical” for “two”
as §3

[6] = tested on: Toledo cells; assay: Toledo cell killing experiment (CellTiter-Glo cell viability); settings: Homo sapiens, 48 h incubation, CTG luminescence
Description: as §1, with “Toledo” for “HL60”, “CRL-2631™), RPMI1640” for “CCL-240™), IMDM”, “30-2001™),” for “30-2005™),”, “coming” for “corning”
as §2, with “Toledo” for “HL60”, “viability and growth rate.” for “viability.”, “two identical” for “two”
as §3

[7] = tested on: SU-DHL-2 cells; assay: SU-DHL-2 cell killing experiment (CellTiter-Glo cell viability); settings: Homo sapiens, 48 h incubation, CTG luminescence
Description: as §1, with “SU-DHL-2” for “HL60”, “CRL-2956™), RPMI1640” for “CCL-240™), IMDM”, “30-2001™),” for “30-2005™),”, “coming” for “corning”
as §2, with “SU-DHL-2” for “HL60”, “viability and growth rate.” for “viability.”, “two identical” for “two”
as §3

[8] = tested on: THP-1 cells; assay: THP-1 cell killing experiment (CellTiter-Glo cell viability); settings: Homo sapiens, 48 h incubation, CTG luminescence
Description: as §1, with “THP-1” for “HL60”, “TIB-202™), RPMI1640” for “CCL-240™), IMDM”, “30-2001™),” for “30-2005™),”, “coming” for “corning”
as §2, with “THP-1” for “HL60”, “viability and growth rate.” for “viability.”, “two identical” for “two”
as §3

[9] = Homo sapiens, HL-60, 48 h incubation

T1 sequence (P15170 whole entry): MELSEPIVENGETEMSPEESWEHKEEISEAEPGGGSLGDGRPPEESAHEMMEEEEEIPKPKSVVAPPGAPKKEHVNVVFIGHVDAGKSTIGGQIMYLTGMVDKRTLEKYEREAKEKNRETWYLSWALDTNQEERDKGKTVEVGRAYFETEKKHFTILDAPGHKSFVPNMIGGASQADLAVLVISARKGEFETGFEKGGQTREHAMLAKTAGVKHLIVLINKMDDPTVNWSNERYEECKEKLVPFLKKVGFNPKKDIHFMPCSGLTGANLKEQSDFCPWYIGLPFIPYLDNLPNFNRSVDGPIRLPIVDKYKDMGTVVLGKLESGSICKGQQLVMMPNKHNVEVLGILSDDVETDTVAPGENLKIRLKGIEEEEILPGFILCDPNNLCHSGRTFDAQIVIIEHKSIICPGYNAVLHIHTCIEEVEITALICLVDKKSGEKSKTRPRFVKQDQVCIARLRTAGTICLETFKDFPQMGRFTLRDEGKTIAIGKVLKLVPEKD
T1 sequence (Q96SW2 whole entry): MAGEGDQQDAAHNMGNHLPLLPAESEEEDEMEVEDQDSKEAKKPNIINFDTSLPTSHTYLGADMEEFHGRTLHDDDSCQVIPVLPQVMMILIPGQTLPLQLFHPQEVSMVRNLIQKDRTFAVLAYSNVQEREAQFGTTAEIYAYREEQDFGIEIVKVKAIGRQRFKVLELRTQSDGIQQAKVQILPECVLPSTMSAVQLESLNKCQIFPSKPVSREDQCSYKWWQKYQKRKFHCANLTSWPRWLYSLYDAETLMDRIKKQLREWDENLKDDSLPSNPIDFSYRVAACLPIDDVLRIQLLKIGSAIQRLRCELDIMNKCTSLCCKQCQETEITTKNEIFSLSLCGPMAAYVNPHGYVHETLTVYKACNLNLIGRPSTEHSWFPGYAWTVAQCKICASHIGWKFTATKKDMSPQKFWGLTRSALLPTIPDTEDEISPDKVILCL
T1 sequence (Q16531 whole entry partner): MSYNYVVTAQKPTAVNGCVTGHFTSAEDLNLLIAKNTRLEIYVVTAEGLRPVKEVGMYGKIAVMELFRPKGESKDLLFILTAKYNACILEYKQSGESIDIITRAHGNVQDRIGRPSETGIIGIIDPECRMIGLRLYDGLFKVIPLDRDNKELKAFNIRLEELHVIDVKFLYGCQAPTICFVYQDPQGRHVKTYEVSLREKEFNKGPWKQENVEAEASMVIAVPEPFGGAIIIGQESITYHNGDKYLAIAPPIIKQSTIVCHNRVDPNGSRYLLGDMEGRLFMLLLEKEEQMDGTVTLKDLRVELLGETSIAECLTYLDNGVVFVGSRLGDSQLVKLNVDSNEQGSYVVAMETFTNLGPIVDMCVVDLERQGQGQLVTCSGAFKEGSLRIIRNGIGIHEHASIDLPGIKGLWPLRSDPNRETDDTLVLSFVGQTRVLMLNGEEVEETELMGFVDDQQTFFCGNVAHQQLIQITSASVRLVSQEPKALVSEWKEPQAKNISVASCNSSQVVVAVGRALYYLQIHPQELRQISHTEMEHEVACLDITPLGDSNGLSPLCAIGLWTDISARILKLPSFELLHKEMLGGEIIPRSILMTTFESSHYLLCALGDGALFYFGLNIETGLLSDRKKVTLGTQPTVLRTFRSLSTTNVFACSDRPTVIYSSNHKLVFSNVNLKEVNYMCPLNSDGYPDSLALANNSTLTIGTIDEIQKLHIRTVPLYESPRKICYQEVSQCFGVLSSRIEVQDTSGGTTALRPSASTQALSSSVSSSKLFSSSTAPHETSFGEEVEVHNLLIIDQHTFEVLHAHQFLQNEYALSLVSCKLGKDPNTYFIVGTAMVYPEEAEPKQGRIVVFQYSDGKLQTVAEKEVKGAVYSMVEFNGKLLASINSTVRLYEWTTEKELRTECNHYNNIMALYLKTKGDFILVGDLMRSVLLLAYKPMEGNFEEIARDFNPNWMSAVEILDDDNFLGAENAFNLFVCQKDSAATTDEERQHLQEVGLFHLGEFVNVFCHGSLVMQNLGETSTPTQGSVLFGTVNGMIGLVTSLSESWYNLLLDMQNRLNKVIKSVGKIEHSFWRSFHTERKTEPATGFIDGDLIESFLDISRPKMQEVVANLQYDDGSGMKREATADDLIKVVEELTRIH

DC50 [1]	Compound	GI50 [2, 9]	GI50 [3]	GI50 [4]	GI50 [5]	GI50 [6]	GI50 ([2]; 48 h incubation)	GI50 [7]	GI50 [8]
< 100 nM	Cn1c(C2CCC(NC(=O)C3CC(CNc4cccc5c4C(=O)N(C4CCC(=O)NC4=O)C5=O)C3)CC2)nc2ccncc21 (stereo not drawn) [Example 10]	< 100 nM	19.6 nM	6.91 nM					
< 100 nM	Cn1c2cnccc2nc1[C@H]1CC[C@H](NC(=O)c2cc(CNc3cccc4c3C(=O)N(C3CCC(=O)NC3=O)C4=O)ccn2)CC1 (stereo partly drawn) [Example 26]	< 100 nM		2.7 nM	2.24 nM	11.7 nM			
< 100 nM	Cn1c(C2CCC(NC(=O)c3cc(CNc4cccc5c4C(=O)N(C4CCC(=O)NC4=O)C5=O)ccn3)CC2)nc2ccncc21 (stereo not drawn) [Example 39]			0.99 nM	1.73 nM	3.58 nM	< 100 nM		
< 100 nM	O=C1CCC(N2C(=O)c3cccc(NCc4cccc(C(=O)N[C@H]5CC[C@H](c6nc7cccnc7s6)CC5)c4)c3C2=O)C(=O)N1 (stereo partly drawn) [Example 61]	< 100 nM	1.08 nM	1.48 nM		5.31 nM			
< 100 nM	Cn1c2cnccc2nc1[C@H]1CC[C@H](N2Cc3ccc(CNc4cccc5c4C(=O)N(C4CCC(=O)NC4=O)C5=O)cc3C2=O)CC1 (stereo partly drawn) [Example 70]	< 100 nM	1.63 nM	5.21 nM				22.3 nM	
< 100 nM	O=C1CCC(N2C(=O)c3cccc(NCc4cccc(NC(=O)[C@H]5CC[C@H](c6nc7cccnc7s6)CC5)c4F)c3C2=O)C(=O)N1 (stereo partly drawn) [Example 81]	< 100 nM	0.33 nM		11.4 nM	4.03 nM		5.62 nM	
< 100 nM	CC(C)n1c(C2CCC(NC(=O)c3cccc(CNc4cccc5c4C(=O)N(C4CCC(=O)NC4=O)C5=O)c3)CC2)nc2cccnc21 (stereo not drawn) [Example 83]	< 100 nM	5.49 nM	7.88 nM					67.6 nM
< 100 nM	COc1ccc(CNc2cccc3c2C(=O)N(C2CCC(=O)NC2=O)C3=O)cc1C(=O)N[C@H]1CC[C@H](c2nc3cccnc3s2)CC1 (stereo partly drawn) [Example 94]	< 100 nM			2.51 nM				
	COc1ccc2c(c1)nc([C@H]1CC[C@H](N(C)C(=O)c3cc(CNc4cccc5c4C(=O)N(C4CCC(=O)NC4=O)C5=O)ccn3)CC1)n2C (stereo partly drawn) [Example 105]				1.3 nM				
< 100 nM	Cn1c(C2CCC(NC(=O)CCCCNc3cccc4c3C(=O)N(C3CCC(=O)NC3=O)C4=O)CC2)nc2c3c(C4CCOCC4)c[nH]c3ncc21 (stereo not drawn) [Example 113]	< 100 nM				1.53 nM			
